Experimental data from US12539292B2, “BRM targeting compounds and associated methods of use” (Arvinas Operations, Inc., priority 2018, dated 2026).

Biological target: T1, BRM (Homo sapiens, UniProt P51531)
T1 construct: In-Cell Western Screen of BRM Degradation in SW1573 Cells; endogenous in cells; host or cells: SW1573
Test: In-cell Western screen of BRM degradation in SW1573 cells (Dmax and DC50)
Format: cell-based
Details: BRM degradation, SW1573 cells; for DC50: read-out: DC50; for Dmax: read-out: Dmax (% degraded)
Method in brief: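 SW1573 cells were treated overnight (18-20 hours) with compound at 0.1% final DMSO. They were then PFA-fixed, permeabilised with Triton X-100 and immunostained with 800 nm/680 nm secondary antibodies. BRM signal was quantified by LI-COR in-cell Western imaging to derive Dmax and DC50.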

T1 sequence (P51531 whole entry): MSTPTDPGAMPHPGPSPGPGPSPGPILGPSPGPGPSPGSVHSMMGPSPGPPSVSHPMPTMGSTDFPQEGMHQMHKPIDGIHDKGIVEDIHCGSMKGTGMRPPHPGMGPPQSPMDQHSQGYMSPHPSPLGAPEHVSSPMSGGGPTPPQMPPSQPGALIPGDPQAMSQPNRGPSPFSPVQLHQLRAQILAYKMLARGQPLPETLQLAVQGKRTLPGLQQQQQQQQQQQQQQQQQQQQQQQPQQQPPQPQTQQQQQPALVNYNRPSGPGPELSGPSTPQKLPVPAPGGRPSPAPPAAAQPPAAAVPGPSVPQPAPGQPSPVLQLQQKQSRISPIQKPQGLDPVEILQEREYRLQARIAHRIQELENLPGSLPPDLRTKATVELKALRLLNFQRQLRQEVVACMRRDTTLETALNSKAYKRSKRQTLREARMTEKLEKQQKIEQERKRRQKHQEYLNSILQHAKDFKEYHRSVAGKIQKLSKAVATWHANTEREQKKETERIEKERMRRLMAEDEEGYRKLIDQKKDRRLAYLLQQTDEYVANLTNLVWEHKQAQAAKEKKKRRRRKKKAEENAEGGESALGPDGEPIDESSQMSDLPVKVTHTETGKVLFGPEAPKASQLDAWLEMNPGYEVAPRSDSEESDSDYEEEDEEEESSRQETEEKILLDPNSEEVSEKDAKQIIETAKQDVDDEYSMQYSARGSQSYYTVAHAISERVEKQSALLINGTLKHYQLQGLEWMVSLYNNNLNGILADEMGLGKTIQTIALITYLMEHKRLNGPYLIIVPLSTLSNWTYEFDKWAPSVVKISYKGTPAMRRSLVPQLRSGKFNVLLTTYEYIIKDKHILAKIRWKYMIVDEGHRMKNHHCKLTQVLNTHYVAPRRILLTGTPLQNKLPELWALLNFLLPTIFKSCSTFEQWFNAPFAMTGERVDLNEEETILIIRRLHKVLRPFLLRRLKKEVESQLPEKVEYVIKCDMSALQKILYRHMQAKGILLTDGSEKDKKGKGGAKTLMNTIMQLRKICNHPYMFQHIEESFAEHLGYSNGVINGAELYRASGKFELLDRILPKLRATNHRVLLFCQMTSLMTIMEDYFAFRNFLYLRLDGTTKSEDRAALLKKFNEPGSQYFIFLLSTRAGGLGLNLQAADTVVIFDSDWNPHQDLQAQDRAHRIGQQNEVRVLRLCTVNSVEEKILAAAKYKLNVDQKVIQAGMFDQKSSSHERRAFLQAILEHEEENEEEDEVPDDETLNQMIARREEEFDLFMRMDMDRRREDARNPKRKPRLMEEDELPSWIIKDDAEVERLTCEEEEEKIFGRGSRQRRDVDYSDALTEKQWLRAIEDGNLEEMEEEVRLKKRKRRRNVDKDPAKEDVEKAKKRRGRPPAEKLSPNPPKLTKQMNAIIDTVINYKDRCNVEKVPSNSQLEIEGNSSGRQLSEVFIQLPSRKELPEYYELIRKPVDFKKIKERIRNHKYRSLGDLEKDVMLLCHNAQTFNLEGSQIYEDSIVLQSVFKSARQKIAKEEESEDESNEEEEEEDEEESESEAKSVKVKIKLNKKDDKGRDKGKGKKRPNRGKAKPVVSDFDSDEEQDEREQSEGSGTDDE

| SMILES | DC50 [nM] | Dmax [%] |
| --- | --- | --- |
| Cc1ncsc1-c1ccc([C@H](C)NC(=O)[C@@H]2C[C@@H](O)CN2C(=O)[C@H](c2cc(OCCC3CCN(C[C@H]4C[C@H](C#CC(C)n5cc(-c6cc(-c7ccccc7O)nnc6N)cn5)C4)CC3)no2)C(C)C)cc1 (stereo partly drawn) [compound 633, (2S,4R)-1-((2R)-2-(3-(2-(1-(((1r,3R)-3-(3-(4-(3-amino-6-(2-hydroxyphenyl)pyridazin-4-yl)-1H-pyrazol-1-yl)but-1-yn-1-yl)cyclobutyl)methyl)piperidin-4-yl)ethoxy)isoxazol-5-yl)-3-methylbutanoyl)-4-hydroxy-N-((S)-1-(4-(4-methylthiazol-5-yl)phenyl)ethyl)pyrrolidine-2-carboxamide] | < 2.5 | > 75 |
| CC(C)C(C(=O)N1C[C@H](O)C[C@H]1C(=O)N[C@@H](C)c1ccc(C#N)cc1)c1cc(N2CCC(CN3CCC(O[C@H]4C[C@H](Oc5cc(N6C7CCC6CN(c6cc(-c8ccccc8O)nnc6N)C7)ccn5)C4)CC3)CC2)no1 (stereo partly drawn) [compound 639, (2S,4R)-1-((2S)-2-(3-(4-((4-((1r,3r)-3-((4-(3-(3-amino-6-(2-hydroxyphenyl)pyridazin-4-yl)-3,8-diazabicyclo[3.2.1]octan-8-yl)pyridin-2-yl)oxy)cyclobutoxy)piperidin-1-yl)methyl)piperidin-1-yl)isoxazol-5-yl)-3-methylbutanoyl)-N-((S)-1-(4-cyanophenyl)ethyl)-4-hydroxypyrrolidine-2-carboxamide] | > 30 | – |
| CC(C)[C@@H](C(=O)N1C[C@H](O)C[C@H]1C(=O)N[C@@H](C)c1ccc(C#N)cc1)c1cc(N2CCC(CN3CCC(O[C@H]4C[C@H](Oc5cc(N6C7CCC6CN(c6cc(-c8ccccc8O)nnc6N)C7)ccn5)C4)CC3)CC2)no1 [compound 640, (2S,4R)-1-((2R)-2-(3-(4-((4-((1r,3r)-3-((4-(3-(3-amino-6-(2-hydroxyphenyl)pyridazin-4-yl)-3,8-diazabicyclo[3.2.1]octan-8-yl)pyridin-2-yl)oxy)cyclobutoxy)piperidin-1-yl)methyl)piperidin-1-yl)isoxazol-5-yl)-3-methylbutanoyl)-N-((S)-1-(4-cyanophenyl)ethyl)-4-hydroxypyrrolidine-2-carboxamide] | < 2.5 | > 75 |
| Cc1ncsc1-c1ccc([C@H](C)NC(=O)[C@@H]2C[C@@H](O)CN2C(=O)[C@H](c2cc(N3CCC(O)(CN4CCC(O[C@H]5C[C@H](Oc6cc(N7C8CCC7CN(c7cc(-c9ccccc9O)nnc7N)C8)ccn6)C5)CC4)CC3)no2)C(C)C)cc1 [compound 641, (2S,4R)-1-((2S)-2-(3-(4-((4-((1r,3r)-3-((4-(3-(3-amino-6-(2-hydroxyphenyl)pyridazin-4-yl)-3,8-diazabicyclo[3.2.1]octan-8-yl)pyridin-2-yl)oxy)cyclobutoxy)piperidin-1-yl)methyl)-4-hydroxypiperidin-1-yl)isoxazol-5-yl)-3-methylbutanoyl)-4-hydroxy-N-((S)-1-(4-(4-methylthiazol-5-yl)phenyl)ethyl)pyrrolidine-2-carboxamide] | > 30 | – |
| Cc1ncsc1-c1ccc([C@H](C)NC(=O)[C@@H]2C[C@@H](O)CN2C(=O)[C@@H](c2cc(N3CCC(CN4CCC(O[C@H]5C[C@H](CN6CCC(C(C)n7cc(-c8cc(-c9ccccc9O)nnc8N)cn7)CC6)C5)CC4)CC3)no2)C(C)C)cc1 (stereo partly drawn) [compound 642, (2S,4R)-1-((2R)-2-(3-(4-((4-((1r,3r)-3-((4-(1-(4-(3-amino-6-(2-hydroxyphenyl)pyridazin-4-yl)-1H-pyrazol-1-yl)ethyl)piperidin-1-yl)methyl)cyclobutoxy)piperidin-1-yl)methyl)piperidin-1-yl)isoxazol-5-yl)-3-methylbutanoyl)-4-hydroxy-N-((S)-1-(4-(4-methylthiazol-5-yl)phenyl)ethyl)pyrrolidine-2-carboxamide] | < 2.5 | > 75 |
| Cc1ncsc1-c1ccc([C@H](C)NC(=O)[C@@H]2C[C@@H](O)CN2C(=O)[C@H](c2cc(N3CCC(C(C)N4CCC(O[C@H]5C[C@H](Oc6cc(N7C8CCC7CN(c7cc(-c9ccccc9O)nnc7N)C8)ccn6)C5)CC4)CC3)no2)C(C)C)cc1 (stereo partly drawn) [compound 643, (2S,4R)-1-((2S)-2-(3-(4-(1-(4-((1r,3r)-3-((4-(3-(3-amino-6-(2-hydroxyphenyl)pyridazin-4-yl)-3,8-diazabicyclo[3.2.1]octan-8-yl)pyridin-2-yl)oxy)cyclobutoxy)piperidin-1-yl)ethyl)piperidin-1-yl)isoxazol-5-yl)-3-methylbutanoyl)-4-hydroxy-N-((S)-1-(4-(4-methylthiazol-5-yl)phenyl)ethyl)pyrrolidine-2-carboxamide] | < 2.5 | > 75 |
| Cc1ncsc1-c1ccc([C@H](C)NC(=O)[C@@H]2C[C@@H](O)CN2C(=O)[C@@H](c2cc(N3CCC(C(C)N4CCC(O[C@H]5C[C@H](Oc6cc(N7C8CCC7CN(c7cc(-c9ccccc9O)nnc7N)C8)ccn6)C5)CC4)CC3)no2)C(C)C)cc1 (stereo partly drawn) [compound 644, (2S,4R)-1-((2R)-2-(3-(4-(1-(4-((1r,3r)-3-((4-(3-(3-amino-6-(2-hydroxyphenyl)pyridazin-4-yl)-3,8-diazabicyclo[3.2.1]octan-8-yl)pyridin-2-yl)oxy)cyclobutoxy)piperidin-1-yl)ethyl)piperidin-1-yl)isoxazol-5-yl)-3-methylbutanoyl)-4-hydroxy-N-((S)-1-(4-(4-methylthiazol-5-yl)phenyl)ethyl)pyrrolidine-2-carboxamide] | < 2.5 | > 75 |
| Cc1ncsc1-c1ccc([C@H](C)NC(=O)[C@@H]2C[C@@H](O)CN2C(=O)[C@@H](c2cc(N3CCC(O)(CN4CCC(O[C@H]5C[C@H](Oc6cc(N7C8CCC7CN(c7cc(-c9ccccc9O)nnc7N)C8)ccn6)C5)CC4)CC3)no2)C(C)C)cc1 [compound 645, (2S,4R)-1-((2R)-2-(3-(4-((4-((1r,3r)-3-((4-(3-(3-amino-6-(2-hydroxyphenyl)pyridazin-4-yl)-3,8-diazabicyclo[3.2.1]octan-8-yl)pyridin-2-yl)oxy)cyclobutoxy)piperidin-1-yl)methyl)-4-hydroxypiperidin-1-yl)isoxazol-5-yl)-3-methylbutanoyl)-4-hydroxy-N-((S)-1-(4-(4-methylthiazol-5-yl)phenyl)ethyl)pyrrolidine-2-carboxamide] | < 2.5 | > 75 |
| Cc1ncsc1-c1ccc([C@H](C)NC(=O)[C@@H]2C[C@@H](O)CN2C(=O)[C@@H](c2cc(N3CCC4(CCN(C[C@H]5C[C@H](Oc6cc(N7C8CCC7CN(c7cc(-c9ccccc9O)nnc7N)C8)ccn6)C5)CC4)CC3)no2)C(C)C)cc1 [compound 646, (2S,4R)-1-((2R)-2-(3-(9-(((1r,3R)-3-((4-(3-(3-amino-6-(2-hydroxyphenyl)pyridazin-4-yl)-3,8-diazabicyclo[3.2.1]octan-8-yl)pyridin-2-yl)oxy)cyclobutyl)methyl)-3,9-diazaspiro[5.5]undecan-3-yl)isoxazol-5-yl)-3-methylbutanoyl)-4-hydroxy-N-((S)-1-(4-(4-methylthiazol-5-yl)phenyl)ethyl)pyrrolidine-2-carboxamide] | < 2.5 | > 75 |
| Cc1ncsc1-c1ccc([C@H](C)NC(=O)[C@@H]2C[C@@H](O)CN2C(=O)[C@H](c2cc(N3CCC4(CCN(C[C@H]5C[C@H](Oc6cc(N7C8CCC7CN(c7cc(-c9ccccc9O)nnc7N)C8)ccn6)C5)CC4)CC3)no2)C(C)C)cc1 [compound 647, (2S,4R)-1-((2S)-2-(3-(9-(((1r,3S)-3-((4-(3-(3-amino-6-(2-hydroxyphenyl)pyridazin-4-yl)-3,8-diazabicyclo[3.2.1]octan-8-yl)pyridin-2-yl)oxy)cyclobutyl)methyl)-3,9-diazaspiro[5.5]undecan-3-yl)isoxazol-5-yl)-3-methylbutanoyl)-4-hydroxy-N-((S)-1-(4-(4-methylthiazol-5-yl)phenyl)ethyl)pyrrolidine-2-carboxamide] | > 30 | – |
| Cc1ncsc1-c1ccc([C@H](C)NC(=O)[C@@H]2C[C@@H](O)CN2C(=O)[C@@H](c2cc(N3CCC(CN4CCC(O[C@H]5C[C@H](N6CCC(C(C)n7cc(-c8cc(-c9ccccc9O)nnc8N)cn7)CC6)C5)CC4)CC3)no2)C(C)C)cc1 (stereo partly drawn) [compound 648, (2S,4R)-1-((2R)-2-(3-(4-((4-((1r,3r)-3-(4-(1-(4-(3-amino-6-(2-hydroxyphenyl)pyridazin-4-yl)-1H-pyrazol-1-yl)ethyl)piperidin-1-yl)cyclobutoxy)piperidin-1-yl)methyl)piperidin-1-yl)isoxazol-5-yl)-3-methylbutanoyl)-4-hydroxy-N-((S)-1-(4-(4-methylthiazol-5-yl)phenyl)ethyl)pyrrolidine-2-carboxamide] | < 2.5 | > 75 |
| Cc1ncsc1-c1ccc([C@H](C)NC(=O)[C@@H]2C[C@@H](O)CN2C(=O)[C@H](c2cc(N3CCC4(CC3)CC(CN3CCC(O[C@H]5C[C@H](Oc6cc(N7C8CCC7CN(c7cc(-c9ccccc9O)nnc7N)C8)ccn6)C5)CC3)C4)no2)C(C)C)cc1 [compound 649, (2S,4R)-1-((2S)-2-(3-(2-((4-((1r,3r)-3-((4-(3-(3-amino-6-(2-hydroxyphenyl)pyridazin-4-yl)-3,8-diazabicyclo[3.2.1]octan-8-yl)pyridin-2-yl)oxy)cyclobutoxy)piperidin-1-yl)methyl)-7-azaspiro[3.5]nonan-7-yl)isoxazol-5-yl)-3-methylbutanoyl)-4-hydroxy-N-((S)-1-(4-(4-methylthiazol-5-yl)phenyl)ethyl)pyrrolidine-2-carboxamide] | > 30 | – |
| Cc1ncsc1-c1ccc([C@H](C)NC(=O)[C@@H]2C[C@@H](O)CN2C(=O)[C@@H](c2cc(N3CCC4(CC3)CC(CN3CCC(O[C@H]5C[C@H](Oc6cc(N7C8CCC7CN(c7cc(-c9ccccc9O)nnc7N)C8)ccn6)C5)CC3)C4)no2)C(C)C)cc1 [compound 650, (2S,4R)-1-((2R)-2-(3-(2-((4-((1r,3r)-3-((4-(3-(3-amino-6-(2-hydroxyphenyl)pyridazin-4-yl)-3,8-diazabicyclo[3.2.1]octan-8-yl)pyridin-2-yl)oxy)cyclobutoxy)piperidin-1-yl)methyl)-7-azaspiro[3.5]nonan-7-yl)isoxazol-5-yl)-3-methylbutanoyl)-4-hydroxy-N-((S)-1-(4-(4-methylthiazol-5-yl)phenyl)ethyl)pyrrolidine-2-carboxamide] | > 30 | – |
